Measured values published in patent US6916783B2, “Methods for accelerating bone and cartilage growth and repair” (University of Southern California, priority 1998, dated 2005).
Entries after “also recorded” stand apart in the source; their conditions may differ.

Legend:
[1] = Effectiveness tests of AII fragments (method not described); details: test not specified
AT2 receptor = target: T1, AT2 receptor (Homo sapiens, UniProt P50052); details: cited from earlier work
T1 sequence (P50052 1-363): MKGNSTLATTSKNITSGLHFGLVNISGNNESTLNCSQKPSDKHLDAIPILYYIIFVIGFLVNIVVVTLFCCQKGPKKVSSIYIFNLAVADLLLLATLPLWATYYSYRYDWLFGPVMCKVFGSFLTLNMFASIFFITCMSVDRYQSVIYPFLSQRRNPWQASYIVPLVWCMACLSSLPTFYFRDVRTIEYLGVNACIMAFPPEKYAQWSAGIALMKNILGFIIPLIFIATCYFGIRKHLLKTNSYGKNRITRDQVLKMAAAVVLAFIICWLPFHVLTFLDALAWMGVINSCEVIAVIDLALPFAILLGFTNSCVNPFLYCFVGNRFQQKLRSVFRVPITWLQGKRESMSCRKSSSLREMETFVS

chondrocytes = assay: Rabbit chondrocyte proliferation in culture; assay type: cell-based; details: 10 μg/ml peptide; days 1, 2, and 3 after culture initiation; nuclei counted after Giemsa stain; FIGS. 1-4
Protocol: Chondrocytes were isolated from the cartilage of the knee joints of adult rabbits and cultured according to the method of Okazaki et al. (Ann. Rheum. Dis. 55:181-186, 1996). Briefly, cartilage explants were minced into small pieces (approximately 1.5 mm by 1.5 mm). The tissue pieces were digested at 37° C. sequentially in 0.05% hyaluronidase (415 U/mg protein) for 10 minutes, 0.2% Type III trypsin (10,000 U/mg protein, Sigma) and 0.53 mM EDTA for 15 minutes, and 0.2% Type I collagenase (136 U/mg protein, Sigma) for 30 minutes. The samples were then washed and incubated overnight at 37° C. in 5% CO2 in air in Dulbecco's modified Eagle's medium enriched with 10% fetal calf serum, 3.5 mg/ml glucose, 0.2% Type I collagenase and antibiotics (100 U/ml penicillin and 100 μg/ml streptomycin).
After this incubation, the cells were harvested and washed once with phosphate buffered saline (pH 7.2). The cells were then counted with a hemacytometer and resuspended at 1×10^5 cells/ml in Ham's F12 supplemented with 10% fetal calf serum and antibiotics. A 10 ml aliquot of cells was transferred to collagen coated 25 cm^2 flasks (coated with collagen isolated from rat tail tendons) and incubated at 37° C. in 5% CO2 in air. […] Cell numbers were quantitated by staining the cells with Giemsa stain and counting the number of nuclei detected via microscopy.

Row | Substance | effectiveness in tests [1] | times higher affinity for AT2 than AT1 (AT2 receptor) [times] | effect on chondrocyte proliferation (chondrocytes)
1 | His-Pro-Phe (HPF) [AII(6-8)] | not to be effective |  | 
2 | Tyr-Ile-His-Pro-Phe (YIHPF) [AII(4-8)] | not to be effective; also recorded: ineffective in repeated tests |  | 
3 | Asp-Arg-Val-Tyr-Ile-His-Pro-Phe (DRVYIHPF) [AII] |  | 100 | accelerated the chondrocyte proliferation
